Bounds are passed on as bounds.

The target of the assay is recombinant Mcl-1 (residues 172-327) (Homo sapiens (Human), UniProt Q07820). The assay can be described thus: Bak peptide binding assay, fluorescence polarization anisotropy competition (FITC-Bak), Mcl-1.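 Also: displacement of labeled Bak peptide read by fluorescence anisotropy, 10-point threefold dilutions from 20 µM top dose in 5% DMSO, 90 min incubation at room temperature.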 The settings on record: Table 3, binned ranges; FITC-Bak peptide 10 nM, Mcl-1 14 nM; read-out: Ki for inhibition of Mcl-1.
Chain of recombinant Mcl-1 (residues 172-327) (Q07820 172-327): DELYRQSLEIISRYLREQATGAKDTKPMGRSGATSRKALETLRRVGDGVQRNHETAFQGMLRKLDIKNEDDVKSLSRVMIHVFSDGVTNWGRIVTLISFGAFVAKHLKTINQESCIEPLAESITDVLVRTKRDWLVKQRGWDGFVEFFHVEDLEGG
As for `Cc1cc(OCCCc2c(C)n(CCC(=O)NS(=O)(=O)c3ccccc3[N+](=O)[O-])c3c(-c4c(C)nn(C)c4C)cccc23)cc(C)c1Cl` [Example 91, 3-(3-(3-(4-chloro-3,5-dimethylphenoxy)propyl)-2-methyl-7-(1,3,5-trimethyl-1H-pyrazol-4-yl)-1H-indol-1-yl)-N-((2-nitrophenyl)sulfonyl)propanamide], the Ki was not above 100 nM. The result for `Cc1cc(OCCCc2c(C)n(CCC(=O)NS(=O)(=O)c3cccc([N+](=O)[O-])c3)c3c(-c4c(C)nn(C)c4C)cccc23)cc(C)c1Cl` [Example 92, 3-(3-(3-(4-chloro-3,5-dimethylphenoxy)propyl)-2-methyl-7-(1,3,5-trimethyl-1H-pyrazol-4-yl)-1H-indol-1-yl)-N-((3-nitrophenyl)sulfonyl)propanamide] reads not above 100 nM.

For the molecule `Cc1cc(OCCCc2c(C)n(CCC(=O)NS(=O)(=O)c3ccc([N+](=O)[O-])cc3)c3c(-c4c(C)nn(C)c4C)cccc23)cc(C)c1Cl` [Example 93, 3-(3-(3-(4-chloro-3,5-dimethylphenoxy)propyl)-2-methyl-7-(1,3,5-trimethyl-1H-pyrazol-4-yl)-1H-indol-1-yl)-N-((4-nitrophenyl)sulfonyl)propanamide], the inhibitory constant (Ki) was not above 100 nM.

As for `Cc1cc(OCCCc2c(C)n(CCC(=O)NS(=O)(=O)c3ccccn3)c3c(-c4c(C)nn(C)c4C)cccc23)cc(C)c1Cl` [Example 94, 3-(3-(3-(4-chloro-3,5-dimethylphenoxy)propyl)-2-methyl-7-(1,3,5-trimethyl-1H-pyrazol-4-yl)-1H-indol-1-yl)-N-(pyridin-2-ylsulfonyl)propanamide], the inhibition constant (Ki) is not above 100 nM.

Consider `Cc1cc(OCCCc2c(C)n(CCC(=O)NS(=O)(=O)c3cccnc3)c3c(-c4c(C)nn(C)c4C)cccc23)cc(C)c1Cl` [Example 95, 3-(3-(3-(4-chloro-3,5-dimethylphenoxy)propyl)-2-methyl-7-(1,3,5-trimethyl-1H-pyrazol-4-yl)-1H-indol-1-yl)-N-(pyridin-3-ylsulfonyl)propanamide], for which the inhibition constant Ki is not above 100 nM. The result for `Cc1cc(OCCCc2c(C)n(CCC(=O)NS(=O)(=O)c3ccncc3)c3c(-c4c(C)nn(C)c4C)cccc23)cc(C)c1Cl` [Example 96, 3-(3-(3-(4-chloro-3,5-dimethylphenoxy)propyl)-2-methyl-7-(1,3,5-trimethyl-1H-pyrazol-4-yl)-1H-indol-1-yl)-N-(pyridin-4-ylsulfonyl)propanamide] reads not above 100 nM; that for `Cc1cc(OCCCc2c(C)n(Cc3ccccc3C(=O)O)c3c(-c4c(C)n[nH]c4C)cccc23)cc(C)c1Cl` [Example 97, 2-((3-(3-(4-chloro-3,5-dimethylphenoxy)propyl)-7-(3,5-dimethyl-1H-pyrazol-4-yl)-2-methyl-1H-indol-1-yl)methyl)benzoic acid], 1000 to 9990 nM. Then `Cc1cc(OCCCc2c(C)n(Cc3ccc(C(=O)O)cc3)c3c(-c4c(C)n[nH]c4C)cccc23)cc(C)c1Cl` [Example 98, 4-((3-(3-(4-chloro-3,5-dimethylphenoxy)propyl)-7-(3,5-dimethyl-1H-pyrazol-4-yl)-2-methyl-1H-indol-1-yl)methyl)benzoic acid], with not above 100 nM; and `Cc1cc(OCCCc2c(C)n(Cc3cccc(C(=O)O)c3)c3c(-c4c(C)nn(C)c4C)c(Cl)ccc23)cc(C)c1Cl` [Example 102, 3-((6-chloro-3-(3-(4-chloro-3,5-dimethylphenoxy)propyl)-2-methyl-7-(1,3,5-trimethyl-1H-pyrazol-4-yl)-1H-indol-1-yl)methyl)benzoic acid], with not above 100 nM; and `Cc1cc(OCCCc2c(C)n(Cc3ccc(CC(=O)O)cc3)c3c(-c4c(C)nn(C)c4C)c(Cl)ccc23)cc(C)c1Cl` [Example 103, 2-(4-((6-chloro-3-(3-(4-chloro-3,5-dimethylphenoxy)propyl)-2-methyl-7-(1,3,5-trimethyl-1H-pyrazol-4-yl)-1H-indol-1-yl)methyl)phenyl)acetic acid], with not above 100 nM. Then `Cc1cc(OCCCc2c(C)n(CCC(=O)O)c3c(-c4c(C)nn(Cc5ccccn5)c4C)cccc23)cc(C)c1Cl` [Example 105, 3-(3-(3-(4-chloro-3,5-dimethylphenoxy)propyl)-7-(3,5-dimethyl-1-(pyridin-2-ylmethyl)-1H-pyrazol-4-yl)-2-methyl-1H-indol-1-yl)propanoic acid], with not above 100 nM. Regarding `Cc1cc(OCCCc2c(C)n(CCC(=O)O)c3c(-c4c(C)nn(CC5CCOC5)c4C)cccc23)cc(C)c1Cl` (centres unmarked) [Example 106, 3-(3-(3-(4-chloro-3,5-dimethylphenoxy)propyl)-7-(3,5-dimethyl-1-((tetrahydrofuran-3-yl)methyl)-1H-pyrazol-4-yl)-2-methyl-1H-indol-1-yl)propanoic acid], the Ki was not above 100 nM. As for `Cc1cc(OCCCc2c(C)n(CCC(=O)O)c3c(-c4c(C)nn(CCN(C)C)c4C)cccc23)cc(C)c1Cl` [Example 109, 3-(3-(3-(4-chloro-3,5-dimethylphenoxy)propyl)-7-(1-(2-(dimethylamino)ethyl)-3,5-dimethyl-1H-pyrazol-4-yl)-2-methyl-1H-indol-1-yl)propanoic acid], the inhibition constant Ki lay in the range of 301 to 500 nM.

As for `Cc1cc(OCCCc2c(C)n(CCC(=O)O)c3c(-c4c(C)nn(Cc5ncccn5)c4C)cccc23)cc(C)c1Cl` [Example 110, 3-(3-(3-(4-chloro-3,5-dimethylphenoxy)propyl)-7-(3,5-dimethyl-1-(pyrimidin-2-ylmethyl)-1H-pyrazol-4-yl)-2-methyl-1H-indol-1-yl)propanoic acid], the Ki is 1000 to 9990 nM.

As for `Cc1cc(OCCCc2c(C)n(Cc3cccc(C(=O)O)c3)c3c(-c4c(C)nn(Cc5ccccn5)c4C)cccc23)cc(C)c1Cl` [Example 111, 3-((3-(3-(4-chloro-3,5-dimethylphenoxy)propyl)-7-(3,5-dimethyl-1-(pyridin-2-ylmethyl)-1H-pyrazol-4-yl)-2-methyl-1H-indol-1-yl)methyl)benzoic acid], the Ki was not above 100 nM. Then `Cc1cc(OCCCc2c(C)n(Cc3cccc(C(=O)O)c3)c3c(-c4c(C)nn(Cc5cccnc5)c4C)cccc23)cc(C)c1Cl` [Example 112, 3-((3-(3-(4-chloro-3,5-dimethylphenoxy)propyl)-7-(3,5-dimethyl-1-(pyridin-3-ylmethyl)-1H-pyrazol-4-yl)-2-methyl-1H-indol-1-yl)methyl)benzoic acid], with 501 to 999 nM. For the molecule `Cc1cc(OCCCc2c(C)n(CCC(=O)O)c3c(-c4c(C)nn(CCN5CCOCC5)c4C)c(Cl)ccc23)cc(C)c1Cl` [Example 113, 3-(6-chloro-3-(3-(4-chloro-3,5-dimethylphenoxy)propyl)-7-(3,5-dimethyl-1-(2-morpholinoethyl)-1H-pyrazol-4-yl)-2-methyl-1H-indol-1-yl)propanoic acid], the Ki was not above 100 nM.

`Cc1cc(OCCCc2c(C)n(CC(=O)O)c3c(-c4c(C)nn(C)c4C)c(Cl)ccc23)cc(C)c1Cl` [Example 114, 2-(6-chloro-3-(3-(4-chloro-3,5-dimethylphenoxy)propyl)-2-methyl-7-(1,3,5-trimethyl-1H-pyrazol-4-yl)-1H-indol-1-yl)acetic acid]: the Ki is not above 100 nM. Then `Cc1cc(OCCCc2c(C(F)(F)F)n(Cc3cccc(C(=O)O)c3)c3c(Br)cccc23)cc(C)c1Cl` [Example 115, 3-((7-bromo-3-(3-(4-chloro-3,5-dimethylphenoxy)propyl)-2-(trifluoromethyl)-1H-indol-1-yl)methyl)benzoic acid], with 101 to 299 nM; and `Cc1cc(OCCCc2c(C(F)(F)F)n(Cc3ccc(C(=O)O)cc3)c3c(Br)cccc23)cc(C)c1Cl` [Example 116, 4-((7-bromo-3-(3-(4-chloro-3,5-dimethylphenoxy)propyl)-2-(trifluoromethyl)-1H-indol-1-yl)methyl)benzoic acid], with 101 to 299 nM. As for `Cc1cc(OCCCc2c(C(F)(F)F)n(CCc3ccc(C(=O)O)cc3)c3c(-c4c(C)nn(C)c4C)cccc23)cc(C)c1Cl` [Example 118, 4-(2-(3-(3-(4-chloro-3,5-dimethylphenoxy)propyl)-2-(trifluoromethyl)-7-(1,3,5-trimethyl-1H-pyrazol-4-yl)-1H-indol-1-yl)ethyl)benzoic acid], the inhibition constant (Ki) is not above 100 nM.

For `Cc1cc(OCCCc2c(C(F)(F)F)n(Cc3ccc(C(=O)O)cn3)c3c(Br)cccc23)cc(C)c1Cl` [Example 119, 6-((7-bromo-3-(3-(4-chloro-3,5-dimethylphenoxy)propyl)-2-(trifluoromethyl)-1H-indol-1-yl)methyl)nicotinic acid], the inhibition constant Ki was in the range of 1000 to 9990 nM. With `Cc1cc(OCCCc2c(C(F)(F)F)n(CC(=O)O)c3c(-c4c(C)nn(C)c4C)cccc23)cc(C)c1Cl` [Example 120, 2-(3-(3-(4-chloro-3,5-dimethylphenoxy)propyl)-2-(trifluoromethyl)-7-(1,3,5-trimethyl-1H-pyrazol-4-yl)-1H-indol-1-yl)acetic acid], the Ki is not above 100 nM. Then `Cc1cc(OCCCc2c(C(F)(F)F)n(CC(=O)N3CCN(CC(=O)O)CC3)c3c(-c4c(C)nn(C)c4C)cccc23)cc(C)c1Cl` [Example 121, 2-(4-(2-(3-(3-(4-chloro-3,5-dimethylphenoxy)propyl)-2-(trifluoromethyl)-7-(1,3,5-trimethyl-1H-pyrazol-4-yl)-1H-indol-1-yl)acetyl)piperazin-1-yl)acetic acid], with not above 100 nM; and `Cc1cc(OCCCc2c(C(F)(F)F)n(Cc3cccc(C(=O)O)c3)c3c(-c4c(C)nn(C)c4C)c(Cl)ccc23)cc(C)c1Cl` [Example 122, 3-((6-chloro-3-(3-(4-chloro-3,5-dimethylphenoxy)propyl)-2-(trifluoromethyl)-7-(1,3,5-trimethyl-1H-pyrazol-4-yl)-1H-indol-1-yl)methyl)benzoic acid], with not above 100 nM; and `Cc1cc(OCCCc2c(C(F)(F)F)n(Cc3cccc(C(=O)O)c3)c3c(-c4c(C)nn(C)c4C)cccc23)cc(C)c1Cl` [Example 123, 3-((3-(3-(4-chloro-3,5-dimethylphenoxy)propyl)-2-(trifluoromethyl)-7-(1,3,5-trimethyl-1H-pyrazol-4-yl)-1H-indol-1-yl)methyl)benzoic acid], with not above 100 nM.

The values above are taken from patent publication US10954193B2 (Vanderbilt University, priority 2013, dated 2021).
